Our source for the IC50 values is ChEMBL document CHEMBL4725220, “Small molecule inhibitors of IκB kinase β: A chip-based screening and molecular docking simulation” (Bioorg Med Chem, 2020).

The target of this experiment is T1, Inhibitor of nuclear factor kappa-B kinase subunit beta (Homo sapiens, UniProt O14920).
T1 sequence (O14920 whole entry): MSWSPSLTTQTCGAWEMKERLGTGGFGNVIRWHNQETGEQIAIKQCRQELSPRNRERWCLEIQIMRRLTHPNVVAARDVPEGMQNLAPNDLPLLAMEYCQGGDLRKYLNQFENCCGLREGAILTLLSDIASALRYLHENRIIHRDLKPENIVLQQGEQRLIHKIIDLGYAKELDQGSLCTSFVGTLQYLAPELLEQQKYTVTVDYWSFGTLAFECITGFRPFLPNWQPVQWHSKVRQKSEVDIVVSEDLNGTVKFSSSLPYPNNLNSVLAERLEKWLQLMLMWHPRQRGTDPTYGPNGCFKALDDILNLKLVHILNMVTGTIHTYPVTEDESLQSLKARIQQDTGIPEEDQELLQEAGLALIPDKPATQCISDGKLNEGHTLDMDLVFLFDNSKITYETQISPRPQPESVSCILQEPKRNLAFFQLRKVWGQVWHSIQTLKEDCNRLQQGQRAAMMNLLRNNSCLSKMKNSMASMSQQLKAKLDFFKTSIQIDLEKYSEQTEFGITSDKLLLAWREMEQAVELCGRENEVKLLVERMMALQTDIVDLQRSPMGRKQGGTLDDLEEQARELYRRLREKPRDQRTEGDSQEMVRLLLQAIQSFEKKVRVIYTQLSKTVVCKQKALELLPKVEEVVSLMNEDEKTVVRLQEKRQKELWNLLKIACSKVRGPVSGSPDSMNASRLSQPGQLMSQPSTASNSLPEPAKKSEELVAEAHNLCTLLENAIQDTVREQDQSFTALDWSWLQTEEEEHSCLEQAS
As to the kind of experiment: Inhibition of IKKbeta (unknown origin) assessed as substrate phosphorylation using IkappaBalpha as substrate incubated for 1 hr in presence of ATP by chip-based fluorescence assay.

Molecules are shown by their SMILES. pIC50: −log10 of the molar value.

In the case of `O=C1C=C2C[C@]3(O)COc4c(ccc(O)c4O)C3=C2C=C1O`, the pIC50 was 5.66.
For `O=c1oc2c(O)c(O)cc3c(=O)oc4c(O)c(O)cc1c4c23` [ELLAGIC ACID], the pIC50 is 5.70.
Consider `O=C(c1ccc(Nc2nccc(-c3cc4ccccc4s3)n2)cc1)N1CCC(N2CCCC2)CC1`, for which the pIC50 is 5.19.
Consider `O=C(O)C1=CC(=C(c2ccc(O)c(C(=O)O)c2)c2ccc(O)c(C(=O)O)c2)C=CC1=O` [AURINTRICARBOXYLIC ACID], for which the pIC50 is 5.27.
Turning to `COc1ccc(-c2cc(=O)c3c(O)cc(O[C@@H]4O[C@H](CO[C@@H]5O[C@@H](C)[C@H](O)[C@@H](O)[C@H]5O)[C@@H](O)[C@H](O)[C@H]4O)cc3o2)cc1O` [DIOSMIN], the pIC50 was 5.41.
